pIC50: −log10 of the molar value.
Tests used:
eosinophils = test: Eosinophil shape change assay with human plasma; type: cell-based; settings: Homo sapiens, Eosinophil, human plasma (50%), PGD2 100 nM activation, antagonistic activity
Method in brief: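 Human polymorphonuclear cells stained with anti-CD49d-APC, combined with compound-preincubated human plasma (50% of final volume, 4×10^6 cells/ml) for 10 min at 37° C., then stimulated 5 min with 100 nM PGD2 and fixed. Flow cytometry scored percent eosinophils with increased forward scatter.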

hCRTH2 receptor = hCRTH2 receptor (Homo sapiens (Human), UniProt Q9Y5Y4); test: hCRTH2 receptor membranes radioligand (3H-PGD2) displacement assay; type: binding; settings: 3H-PGD2 radioligand displacement, HEK293-hCRTH2 membranes
Sequence of hCRTH2 receptor (Q9Y5Y4 whole entry): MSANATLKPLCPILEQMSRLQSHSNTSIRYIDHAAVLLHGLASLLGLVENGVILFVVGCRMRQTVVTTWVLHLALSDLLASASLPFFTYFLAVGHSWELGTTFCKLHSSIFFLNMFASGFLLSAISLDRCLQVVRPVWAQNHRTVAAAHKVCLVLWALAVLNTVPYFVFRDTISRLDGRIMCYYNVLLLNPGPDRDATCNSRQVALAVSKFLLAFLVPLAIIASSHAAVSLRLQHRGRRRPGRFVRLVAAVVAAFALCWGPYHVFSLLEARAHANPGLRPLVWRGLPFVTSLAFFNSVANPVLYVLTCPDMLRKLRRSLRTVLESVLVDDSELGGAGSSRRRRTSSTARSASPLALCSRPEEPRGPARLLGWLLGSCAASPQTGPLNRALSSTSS
Method in brief: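 Compound was first mixed with buffer, then 3H-PGD2 was added at 2.5 nM, and the reaction was started with hCRTH2 membranes from HEK293 cells at 20 μg/well. After 90 min at room temperature, mixtures were filtered and washed with ice-cold buffer, and retained radioactivity was counted.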

Row | Compound | pIC50 (eosinophils) | pIC50 (hCRTH2 receptor)
1 | CCOc1cc(CC(=O)O)ccc1-c1ccc(F)c2c1CN(C(=O)OCc1cc(F)ccc1F)CC2 [Example 407, 8-(4-Carboxymethyl-2-ethoxy-phenyl)-5-fluoro-3,4-dihydro-1H-isoquinoline-2-carboxylic acid 2,5-difluoro-benzyl ester] | 8.05 | 8.68
2 | CCOc1cc(CC(=O)O)ccc1-c1ccc(F)c2c1CN(C(=O)OCc1cc(Cl)ccc1F)CC2 [Example 408, 8-(4-Carboxymethyl-2-ethoxy-phenyl)-5-fluoro-3,4-dihydro-1H-isoquinoline-2-carboxylic acid 5-chloro-2-fluoro-benzyl ester] | 8.10 | 8.70
3 | CCOc1cc(CC(=O)O)ccc1-c1ccc(F)c2c1CN(C(=O)OCc1ccc(F)cc1F)CC2 [Example 409, 8-(4-Carboxymethyl-2-ethoxy-phenyl)-5-fluoro-3,4-dihydro-1H-isoquinoline-2-carboxylic acid 2,4-difluoro-benzyl ester] | 8.30 | 8.41
4 | CCOc1cc(CC(=O)O)ccc1-c1ccc(F)c2c1CN(C(=O)OCc1ccccc1)CC2 [Example 410, 8-(4-Carboxymethyl-2-ethoxy-phenyl)-5-fluoro-3,4-dihydro-1H-isoquinoline-2-carboxylic acid benzyl ester] | 7.89 | 7.59
5 | O=C(O)Cc1ccc(-c2ccc(F)c3c2CN(C(=O)OCc2ccccc2)CC3)c(OCC(F)(F)F)c1 [Example 411, 8-[4-Carboxymethyl-2-(2,2,2-trifluoro-ethoxy)-phenyl]-5-fluoro-3,4-dihydro-1H-isoquinoline-2-carboxylic acid benzyl ester] | 7.89 | 9.00
6 | O=C(O)Cc1ccc(OC(F)F)c(-c2ccc(F)c3c2CN(C(=O)OCc2ccccc2)CC3)c1 [Example 412, 8-(5-Carboxymethyl-2-difluoromethoxy-phenyl)-5-fluoro-3,4-dihydro-1H-isoquinoline-2-carboxylic acid benzyl ester] | 7.33 | 8.74
7 | O=C(O)Cc1ccc(OCC(F)F)c(-c2ccc(F)c3c2CN(C(=O)OCc2ccccc2)CC3)c1 [Example 413, 8-[5-Carboxymethyl-2-(2,2-difluoro-ethoxy)-phenyl]-5-fluoro-3,4-dihydro-1H-isoquinoline-2-carboxylic acid benzyl ester] | 7.36 | 9.10
8 | CC(C)(C)Oc1ccc(CC(=O)O)cc1-c1ccc(F)c2c1CN(C(=O)OCc1ccccc1)CC2 [Example 419, 8-(2-tert-Butoxy-5-carboxymethyl-phenyl)-5-fluoro-3,4-dihydro-1H-isoquinoline-2-carboxylic acid benzyl ester] | 7.46 | 8.55
9 | CN(C)c1ccc(CC(=O)O)cc1-c1ccc(F)c2c1CN(C(=O)OCc1ccccc1)CC2 [Example 420, 8-(5-Carboxymethyl-2-dimethylamino-phenyl)-5-fluoro-3,4-dihydro-1H-isoquinoline-2-carboxylic acid benzyl ester] | 7.77 | 8.62
10 | O=C(O)Cc1ccc(OCC(F)(F)F)c(-c2ccc(F)c3c2CN(C(=O)OCc2ccccc2)CC3)c1 [Example 421, 8-[5-Carboxymethyl-2-(2,2,2-trifluoro-ethoxy)-phenyl]-5-fluoro-3,4-dihydro-1H-isoquinoline-2-carboxylic acid benzyl ester] | 7.80 | 8.42
11 | O=C(O)Cc1ccc(OCCF)c(-c2ccc(F)c3c2CN(C(=O)OCc2ccccc2)CC3)c1 [Example 422, 8-[5-Carboxymethyl-2-(2-fluoro-ethoxy)-phenyl]-5-fluoro-3,4-dihydro-1H-isoquinoline-2-carboxylic acid benzyl ester] | 8.10 | 8.07
12 | CC(C)Oc1ccc(CC(=O)O)cc1-c1ccc(C#N)c2c1CN(C(=O)OCc1ccccc1)CC2 [Example 431, 8-(5-Carboxymethyl-2-isopropoxy-phenyl)-5-cyano-3,4-dihydro-1H-isoquinoline-2-carboxylic acid benzyl ester] | 7.33 | 8.85
13 | CCOc1ccc(CC(=O)O)cc1-c1ccc(F)c2c1CN(C(=O)NCc1ccccc1)CC2 [Example 438, [3-(2-Benzylcarbamoyl-5-fluoro-1,2,3,4-tetrahydro-isoquinolin-8-yl)-4-ethoxy-phenyl]-acetic acid] | 7.85 | 8.43

From US9255090B2, “Heterocyclyl derivatives and their use as prostaglandin D2 receptor modulators” (Actelion Pharmaceuticals Ltd., priority 2012, dated 2016)
